Each structure is given as a SMILES string.

System in one data set: not listed separately
The data set is described as follows: in vivo. The note with it: mouse, oral, 5% Tween 80 suspension, male ddY mice 19-22 g, Litchfield-Wilcoxon method.
A word on the LD50: it is the dose at which mortality reaches 50%. Low values mean greater toxicity, high ones lower toxicity. For the compound `CC(c1cccc(OCCCNC=O)c1)N1CCCC1` (centres unmarked) [A, N-[3-[3-[1-(1-Pyrrolidinyl)ethyl]phenoxy]propyl]formamide], the LD50 at 72 h is 2500 mg/kg.

As to `CC(=O)NCCCOc1cccc(C(C)N2CCCC2)c1` (centres unmarked) [F, N-[3-[3-[1-(1-Pyrrolidinyl)ethyl]phenoxy]propyl]acetamide], the LD50 at 72 h was 2100 mg/kg.

In the next data set the target is T1, histamine H2 receptor (Cavia porcellus, UniProt P47747).
T1 construct: histamine-induced chronotropic response, pA2
T1 sequence (P47747 whole entry): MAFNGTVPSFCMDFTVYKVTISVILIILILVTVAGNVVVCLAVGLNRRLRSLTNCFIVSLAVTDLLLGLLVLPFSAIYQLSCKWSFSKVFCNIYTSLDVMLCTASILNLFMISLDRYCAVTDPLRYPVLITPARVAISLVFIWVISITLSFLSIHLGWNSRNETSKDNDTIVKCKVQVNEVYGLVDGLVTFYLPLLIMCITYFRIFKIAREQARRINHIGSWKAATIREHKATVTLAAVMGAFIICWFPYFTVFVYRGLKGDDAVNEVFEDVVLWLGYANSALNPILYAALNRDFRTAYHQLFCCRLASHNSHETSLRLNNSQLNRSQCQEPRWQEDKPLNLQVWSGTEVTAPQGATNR
Put plainly: Measurement of histamine H2 receptor antagonizing activity (isolated right atrium, histamine dose-response of heart beat). Set-up: species or system Hartley. As to conditions: isolated guinea pig right atrium; test compound 1×10^-5 M; negative logarithm of molar concentration required to double the histamine concentration; Van Rossum method. On the procedure:
(1) Measurement of histamine H2 receptor antagonizing activity
A guinea pig, Hartley, (male 400-550 g) was struck at the head to let out blood, and the heart was enucleated. The right atrium was separated in a Tyrod solution saturated with oxygen, and a silk thread was attached to its both ends. Using the silk threads at both ends, the atrium was suspended under a tension of 700 mg in a Magnus tube (25 ml) containing a Tyrod solution maintained at 36° C. through which mixture of 95% of O2 and 5% of CO2 was passed. The contracting motion of the atrium was recorded by a force-displacement transducer, and the number of heart beats was calculated.
Histamine (used in the form of diphosphate; the same hereinbelow) was cumulatively added to the Magnus tube in a concentration of 1×10^-8 M to 1×10^-4 M in such an amount that the logarithm of the amount provides an equal interval of 1/2, until a maximum increase in heart beat was obtained. Thus, the dose-response curve of histamine was obtained. The inside of the Magnus tube was washed several times with a Tyrod solution, and the atrium was stabilized for 1 hour. Then, the above procedure was repeated to obtain the dose-response curve of histamine again. The inside of the Magnus tube was washed several times, and the tissues were stabilized for 50 minutes. Then, a test compound (1×10^-5 M) was added to the Magnus tube, and after 20 minutes, the dose-response curve of histamine in the presence of the test compound was obtained.
The PA2 value (the negative logarithm of the molar concentration of the test compound required to double the concentration of histamine in the Magnus tube required to induce a certain reaction) was calculated from the dose-response curve of histamine obtained in the second operation and the dose-response curve of histamine in the presence of the test compound in accordance with the method of J. M. Van Rossum (Arch. int. Pharmacodyn., 143, 299, 1963).
In turn, `CC(=O)OCC(=O)NCCCOc1cccc(C(C)N2CCCC2)c1` (centres unmarked) [P, N-[3-[3-[1-(1-Pyrrolidinyl)ethyl]phenoxy]propyl]acetoxyacetamide] displayed a PA2 of 6.11.

`CC(c1cccc(OCCCNC(=O)CO)c1)N1CCCC1` (centres unmarked) [K, N-[3-[3-[1-(1-Pyrrolidinyl)ethyl]phenoxy]propyl]hydroxyacetamide] showed a PA2 of 5.83.

`CC(=O)OCC(=O)NCCCOc1cccc(CN2CCCCCC2)c1` [R, N-[3-[3-(1-Perhydroazepinylmethyl)phenoxy]propyl]acetoxyacetamide] registered a PA2 of 6.28.

`O=C(COC(=O)c1ccc(Cl)c(Cl)c1)NCCCOc1cccc(CN2CCCCCC2)c1` [U, N-(3,4-Dichlorobenzoyloxyacetyl)-3-[3-(1-perhydroazepinylmethyl)phenoxy]propylamine]: the PA2 amounted to 6.80.

On to `O=C(COC(=O)c1ccccc1)NCCCOc1cccc(CN2CCCCC2)c1` [T, N-[3-[3-(1-Piperidinylmethyl)phenoxy]propyl]benzoyloxyacetamide], for which the PA2 is 6.74.

With `CC(c1cccc(OCCCNC=O)c1)N1CCCC1` (centres unmarked) [A, N-[3-[3-[1-(1-Pyrrolidinyl)ethyl]phenoxy]propyl]formamide], the PA2 came to 6.12.

As for `CCC(c1cccc(OCCCNC=O)c1)N1CCCC1` (centres unmarked) [B], the PA2 is 6.49.

With `CCC(c1cccc(OCCCNC(C)=O)c1)N1CCCC1` (centres unmarked) [G, N-[3-[3-[1-(1-Pyrrolidinyl)propyl]phenoxy]propyl]acetamide], the PA2 is on record as 6.47.

Consider `O=CNCCCOc1cccc(CN2CCCCC2)c1` [C, N-[3-[3-(1-Piperidinylmethyl)phenoxy]propyl]formamide], for which the PA2 is 6.50.

In the case of `CCC(=O)NCCCOc1cccc(C(C)N2CCCC2)c1` (centres unmarked) [J, N-[3-[3-[1-(1-Pyrrolidinyl)ethyl]phenoxy]propyl]propionamide], the PA2 was determined as 6.04.

For the compound `CC(c1cccc(OCCCNC=O)c1)N1CCC(O)C1` (centres unmarked) [E], the PA2 amounted to 5.99.

For the compound `COCC(=O)NCCCOc1cccc(CN2CCCCC2)c1` [O, N-[3-[3-(1-Piperidinylmethyl)phenoxy]propyl]methoxyacetamide], the PA2 is recorded as 6.62.

Regarding `CC(=O)NCCCOc1cccc(C(C)N2CCCCC2)c1` (centres unmarked) [I, N-[3-[3-[1-(1-Piperidinyl)ethyl]phenoxy]propyl]acetamide], the PA2 is reported as 5.97.

Compound `O=C(CO)NCCCOc1cccc(CN2CCCCC2)c1` [L, N-[3-[3-(1-Piperidinylmethyl)phenoxy]propyl]hydroxyacetamide] came in with a PA2 of 6.79.

As for `CCC(=O)OCC(=O)NCCCOc1cccc(CN2CCCCC2)c1` [S, N-[3-[3-(1-Piperidinylmethyl)phenoxy]propyl]propionyloxyacetamide], the PA2 worked out at 6.77.

On to `CC(c1cccc(OCCCNC(=O)CCN)c1)N1CCCC1` (centres unmarked) [N, N-(3-Aminopropionyl)-3-[3-[1-(1-pyrrolidinyl)ethyl]phenoxy]propylamine], for which the PA2 was determined as 6.26.

On to `CC(=O)OCC(=O)NCCCOc1cccc(CN2CCCCC2)c1` [Q, N-[3-[3-(1-Piperidinylmethyl)phenoxy]propyl]acetoxyacetamide], for which the PA2 was 7.10.

With `CC(c1cccc(OCCCNC=O)c1)N1CCCCCC1` (centres unmarked) [D, N-[3-[3-(1-(1-Perhydroazepinyl)ethyl]phenoxy]propyl]formamide], the PA2 amounted to 6.14.

Compound `CC(=O)NCCCOc1cccc(C(C)N2CCCC2)c1` (centres unmarked) [F, N-[3-[3-[1-(1-Pyrrolidinyl)ethyl]phenoxy]propyl]acetamide] displayed a PA2 of 6.16.

Compound `O=C(CO)NCCCOc1cccc(CN2CCCCCC2)c1` [M, N-[3-[3-(1-Perhydroazepinylmethyl)phenoxy]propyl]hydroxyacetamide] returned a PA2 of 6.29.

The compound `CC(=O)NCCCOc1cccc(CN2CCCCC2)c1` [H, N-[3-[3-(1-Piperidinylmethyl)phenoxy]propyl]acetamide] showed a PA2 of 6.52.

Values taken from patent US4293557A, “Antiulcer phenoxypropylamine derivatives” (Teikoku Hormone Mfg. Co., Ltd., priority 1979, dated 1981).
